Literature values as cited in US4721704A, “Potent synthetic atrial peptide analogs” (Peninsula Laboratories, Inc., priority 1986, dated 1988).
Ends that are not written are not given here.

Columns and labels:
patients = details: 400 μg bolus doses
[1] = Atriopeptin III and α-hANP compared with each other

Substance: α-human atrial natriuretic polypeptide (SLRRSSCFGGRMDRIGAQSGLGCNSFRY; ends and bridges not checked; cysteine pairing not given here; UniProt P01160 124-151, looked up) [α-hANP, peptide isolated from human atria]
- diuretic action (patients): acting as a diuretic
- effect on blood pressure (patients): decreasing blood pressure
- hypotensive, diuretic and natriuretic activities [1]: about comparable
